Where two headings read alike, the source gives them in different places.
Experiments:
Assay type in all cases: biochemical
PDE8A [1] = target: T1, PDE8A (Homo sapiens, UniProt Q9Y233); assay: Inhibition of recombinant PDE8A activity (32P-phosphate release from 32P-cAMP); settings: for Fold Difference: IC50 for PDE8 versus IC50 for target family; for IC50: read-out: IC50 for PDE8
T1 construct: made in house; host or cells: yeast strain BJ2-54 lacking endogenous PDE activity; plasmid W48-2ADH2 (ATCC 98552); crude yeast extract
T1 sequence (Q9Y233 290-1055 limits assumed): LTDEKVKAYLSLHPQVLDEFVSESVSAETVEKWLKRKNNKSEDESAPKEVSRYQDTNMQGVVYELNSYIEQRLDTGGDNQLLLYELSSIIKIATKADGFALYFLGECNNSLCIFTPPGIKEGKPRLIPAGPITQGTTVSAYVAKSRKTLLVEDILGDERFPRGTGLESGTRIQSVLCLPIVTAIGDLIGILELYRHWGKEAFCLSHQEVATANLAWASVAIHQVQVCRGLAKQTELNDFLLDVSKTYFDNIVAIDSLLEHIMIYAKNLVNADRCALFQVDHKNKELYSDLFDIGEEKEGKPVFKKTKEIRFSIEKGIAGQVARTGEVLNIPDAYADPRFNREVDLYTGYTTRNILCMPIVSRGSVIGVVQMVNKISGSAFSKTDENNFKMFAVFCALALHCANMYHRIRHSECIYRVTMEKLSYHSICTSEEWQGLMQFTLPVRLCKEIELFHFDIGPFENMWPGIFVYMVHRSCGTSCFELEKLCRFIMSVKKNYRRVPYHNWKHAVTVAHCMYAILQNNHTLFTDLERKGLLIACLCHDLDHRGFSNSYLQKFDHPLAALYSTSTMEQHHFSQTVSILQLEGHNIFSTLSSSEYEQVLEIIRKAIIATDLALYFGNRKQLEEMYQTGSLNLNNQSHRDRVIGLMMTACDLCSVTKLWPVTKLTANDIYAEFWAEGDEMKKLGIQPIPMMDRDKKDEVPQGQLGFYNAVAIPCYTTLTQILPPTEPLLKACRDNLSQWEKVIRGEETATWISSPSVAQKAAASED
Protocol: (§1) Frozen cell pellets (0.06 ml) were thawed and suspended in 0.2 ml lysis buffer containing 100 mM MOPS, pH 8.0, 200 mM NaCl, 2 μM […], 2 mM dithiothreitol, and 10 μg/ml each protease inhibitors pepstatin, leupeptin, and aprotinin. Approximately 0.2 ml of 0.5 mm glass beads were added to the cells which were then lysed with four 30-second cycles of vortexing. The lysate was aspirated and the beads were washed twice with 0.3 ml lysis buffer. The lysate was combined with the washes to generate the yeast extract. In some experiments the lysate was fractionated by centrifugation at 105,000×g for thirty minutes.
(§2) PDE activity was assayed by detection of ^32P-phosphate released from ^32P-cAMP or ^32P-cGMP as described previously [Loughney et al., J. Biol. Chem. 271:796-806 (1996)]. The yeast extract was diluted in 0.5×lysis buffer also containing 0.5 mg/ml bovine serum albumin. Twenty μl of the yeast extract, or diluted yeast extract, was assayed in a 100 μl reaction volume which included an additional 50 mM Tris-HCl (pH 8.0), 5 mM MgCl2 1 μM Zn SO2, and 0.1 mg/ml bovine serum albumin. Protein concentration was assayed by the method of Bradford.

PDE3 = assay: IC50 of isozyme-selective inhibitor for its target family PDE3; settings: Target PDE Family PDE3
PDE5 = PDE5 (Homo sapiens, UniProt O76074); assay: IC50 of isozyme-selective inhibitor for its target family PDE5; settings: Target PDE Family PDE5
PDE2 = PDE2 (Homo sapiens, UniProt O00408); assay: IC50 of isozyme-selective inhibitor for its target family PDE2; settings: Target PDE Family PDE2
Chain of PDE2 (O00408 whole entry): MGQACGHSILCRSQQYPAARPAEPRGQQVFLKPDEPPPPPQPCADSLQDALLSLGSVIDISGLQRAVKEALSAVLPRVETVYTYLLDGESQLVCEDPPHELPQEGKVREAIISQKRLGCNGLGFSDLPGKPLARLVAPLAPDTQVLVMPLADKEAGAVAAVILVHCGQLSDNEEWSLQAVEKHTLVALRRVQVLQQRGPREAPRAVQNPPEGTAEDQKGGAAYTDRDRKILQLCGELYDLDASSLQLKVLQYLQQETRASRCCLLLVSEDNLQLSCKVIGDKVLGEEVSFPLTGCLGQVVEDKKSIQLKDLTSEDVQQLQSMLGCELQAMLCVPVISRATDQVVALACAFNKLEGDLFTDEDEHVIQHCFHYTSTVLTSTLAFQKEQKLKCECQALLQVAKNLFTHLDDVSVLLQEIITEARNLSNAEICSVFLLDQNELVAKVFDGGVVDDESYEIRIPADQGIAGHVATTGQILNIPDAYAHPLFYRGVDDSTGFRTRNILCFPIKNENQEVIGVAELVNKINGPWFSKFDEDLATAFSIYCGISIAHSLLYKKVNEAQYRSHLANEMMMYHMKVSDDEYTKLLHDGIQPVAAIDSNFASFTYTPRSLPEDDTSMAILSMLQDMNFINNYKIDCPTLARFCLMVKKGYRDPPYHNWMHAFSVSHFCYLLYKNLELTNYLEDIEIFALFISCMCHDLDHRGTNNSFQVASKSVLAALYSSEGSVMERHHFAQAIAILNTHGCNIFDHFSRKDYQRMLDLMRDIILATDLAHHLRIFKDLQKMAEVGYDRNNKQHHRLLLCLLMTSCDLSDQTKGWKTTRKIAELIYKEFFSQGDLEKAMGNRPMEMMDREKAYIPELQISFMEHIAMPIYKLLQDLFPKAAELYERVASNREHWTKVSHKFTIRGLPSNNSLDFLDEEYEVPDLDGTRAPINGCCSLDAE

[2] = test system: known human PDEs (Non-selective); assay: IC50 of non-selective inhibitor for known PDEs; settings: read-out: IC50 for Target Family
PDE8A [3] = target: T1, PDE8A; assay: Kinetic analysis of PDE8A hydrolysis of cyclic nucleotide substrates in yeast extract; settings: estimated, substrate of PDE8A, yeast lysate
Protocol: as §1
as §2, with “The” for “PDE activity was assayed by detection of ^32P-phosphate released from ^32P-cAMP or ^32P-cGMP as described previously [Loughney et al., J. Biol. Chem. 271:796-806 (1996)]. The”

[4] = cAMP concentration of 60 nM, low Km form only, yeast extract

Row | Fold Difference (PDE8A [1]) | IC50 (PDE8A [1]; [4]) [nM] | SMILES | IC50 (PDE8A [1]) [nM] | further results
1 | 66 | 1100 | CCCOc1ccc(NS(C)(=O)=O)cc1-c1nc2c(c(C)nn2C)c(=O)[nH]1 [DMPPO] | – | IC50 (PDE5): 16 nM
2 | 31 | – | CCCCCCC(C(C)O)n1cnc2c(N)ncnc21 (stereo not drawn) [EHNA, erythro-9-(2-hydroxy-3-nonyl)adenine] | 65000 | IC50 (PDE2): 2000 nM
3 | 0.12-4.6 | 4600 | CC(C)Cn1c(=O)n(C)c(=O)c2[nH]cnc21 [IBMX, isomethyl butyl xanthine] | – | IC50 [2]: 1000 to 40000 nM
4 | – | – | Nc1nc2c(ncn2[C@@H]2O[C@@H]3COP(=O)(O)O[C@H]3[C@H]2O)c(=O)[nH]1 [cGMP] | – | Km (PDE8A [3]; read-out: Km, high Km form): 300 µM; Km (PDE8A [3]; read-out: Km, low Km form): 3 µM

Row | SMILES | Fold Difference (PDE8A [1]) | IC50 (PDE8A [1]; [4]) [nM] | IC50 (PDE8A [1]) [nM] | further results
5 | CN(C(=O)CCCOc1ccc2[nH]c(=O)ccc2c1)C1CCCCC1 [Cilostamide] | 750 | – | 12000 | IC50 (PDE3): 20 nM

Source: US6566087B1, “Phosphodiesterase 8A” (ICOS Corporation, priority 1997, dated 2003)
